Measured values from article PMC4298241 (ChemMedChem, 2014).
Where two headings read alike, the source gives them in different places.

What was measured:
[1] = system: KB 3-1 cervix cancer cell line; conditions: read-out: cytotoxicity IC50; cited from earlier work
T. brucei (BSF) = test: Alamar Blue viability test, T. brucei bloodstream form; assay type: cell-based; conditions: Trypanosoma brucei

## CCCCCCC1CCCC(C2CCC([C@H]3CC[C@H]([C@H](O)CCCCCCCCCCCCC4=C[C@H](C)OC4=O)O3)O2)O1 (stereo partly drawn) [Compound 6, chamuvarinin]
[1]
  IC50: 0.8 nM
T. brucei (BSF); read-out: T.brucei(BSF) EC50
  EC50: 1400 ± 100 nM
T. brucei (BSF); read-out: pEC50 (converted)
  EC50: 1380 nM
